pIC50: −log10 of the molar value. Where two headings read alike, the source gives them in different places.
Assays:
[1] = target: T1, human TRPV1 receptor (hTRPV1) (Homo sapiens (Human), UniProt Q8NER1); experiment: Capsaicin activation assay (FLIPR intracellular Ca2+); assay type: cell-based; details: inhibition of capsaicin-induced intracellular Ca2+ increase, read-out: hTRPV1 cap IC50
In short: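 HEK293 cells stably expressing human TRPV1, loaded with Calcium-4 dye 90–120 min at room temperature, preincubated 3 min with compound (12-point one-third-log range) before capsaicin (200 nM as 4× solution). Peak FLIPR fluorescence minus baseline expressed as percent of 50 nM capsaicin control response.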

[2] = target: T1, human TRPV1 receptor (hTRPV1); experiment: Acid activation assay (pH 5.0, FLIPR intracellular Ca2+); assay type: cell-based; details: 37.5 μM antagonist, percentage of the maximal pH 5.0-induced response remaining; for remaining activity at 37.5 µM: read-out: hTRPV1 H+ (max % remain)
In short: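 1321N1 astrocytoma cells stably expressing homomeric hTRPV1, loaded with Calcium-4 dye 90–120 min at 25 °C. Compounds, 12-point half-log range, added 3 min before pH 5.0 DPBS/MES challenge; intracellular Ca2+ read by FLIPR fluorescence.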

Sprague-Dawley rats [3] = experiment: Rat tail immersion assay (noxious thermosensation); assay type: in vivo; details: for % Increase in tail withdrawal latency / change in vivo at 100 µmol/kg: rat, 100 μmol/kg oral, one hour post dosing, 55° C. water bath, relative to vehicle; for change in vivo at 100 µmol/kg: 1 h
Description: (§1) Adult male Sprague-Dawley rats (250-300 g body weight, Charles River Laboratories, Portage, Mich.) were used. Animal handling and experimental protocols were approved by the Institutional Animal Care and Use Committee (IACUC) at Abbott Laboratories. For all surgical procedures, animals were maintained under isoflurane anesthesia (4-5% to induce, 1-3% to maintain), and the incision sites were sterilized using a 10% povidone-iodine solution prior to and after surgeries.
Compounds were tested for their effects on noxious thermosensation using the tail immersion assay. Testing was performed one hour following oral administration of 100 μmol/kg of the compound in 10% ethanol/20% Tween-80/70% PEG-400 (2 mL/kg). Morphine (6 mg/kg) was administered interperitoneally (i.p.) using saline (2 mL/kg) as the vehicle. For testing, a circulating water bath was heated to 55° C. Thirty to sixty minutes post dosing, the rats were handled for a few seconds to calm them down and then cupped with their back against the tester's hand at a slight angle with head facing away from the tester. With rat in one hand and a 0.01 second stopwatch in the other hand, the tail was quickly immersed 6-8 cm in the water bath or to a distance leaving 2-3 cm of tail out of water. The timer was started simultaneously. When the rat flinched or attempted withdrawal, timer was immediately stopped and the rat's tail was quickly removed from water bath. This response latency (in seconds) was recorded. Process was repeated 3 times with 3-4 minutes between readings and the average response latency was calculated.
For a given example, a percent increase in the average response latency (in seconds) for tail withdrawal relative to a vehicle control was determined. % increase=[(tc−tv)/tv]×100%
tc=response latency (in seconds) with oral dosing of compounds
tv=response latency (in seconds) with oral dosing of vehicle
The % increases in tail withdrawal latency relative to vehicle control are divided into the following categories: […]

Sprague-Dawley rats [4] = experiment: Rat acute capsaicin-induced flinching behavior; assay type: in vivo; details: 100 μmol/kg p.o., percent reduction in number of flinching behaviors
Source text: as §1
Rats were placed in individual observation cages. […] One hour after administration of the test compound, 2.5 μg of capsaicin in a 10 μL solution of 10% ethanol/90% hydroxypropyl-β-cyclodextrin was injected subcutaneously into the dorsal aspect of the right hind paw. The observation cage was then suspended above mirrors in order to facilitate observation. […] The number of flinching behaviors of the injured paw was recorded during the five minute observation period (Gilchrist, H. D.; Allard, B. L.; Simone, D. A.; Enhanced withdrawal responses to heat and mechanical stimuli following intraplantar injection of capsaicin in rats. Pain, 1996, 67, 179-188). The percent reduction in the number of flinching behaviors produced with oral administration of representative compounds of the present invention relative to control-treated animals (% effect) is reported in Table 3.

Sprague-Dawley rats [5] = experiment: Sodium iodoacetate-induced knee joint osteoarthritic pain model; assay type: in vivo, rat; details: 10 mg/kg p.o., 1 hour after dosing, % return to normalcy of hind limb grip force
Source text: as §1
Unilateral knee joint osteoarthritis was induced in the rats by a single intra-articular (i.a.) injection of sodium iodoacetate (3 mg in 0.05 mL sterile isotonic saline) into the right knee joint cavity under light isoflurane anesthesia using a 26 G needle. […] Pain behavioral assessment of hind limb grip force was conducted by recording the maximum compressive force exerted on the hind limb strain gauge setup, in a commercially available grip force measurement system (Columbus Instruments, Columbus, Ohio), to elicit paw withdrawal. The grip force data was converted to a maximum hindlimb cumulative compressive force (CFmax) (gram force)/kg body weight for each animal. The analgesic effects of test compounds were determined 20 days following the i.a. injection of sodium iodoacetate. The vehicle control group for each compound being tested was assigned 0% whereas the age matched naïve group was assigned as being 100% (normal). The % effect for each dose group was then expressed as % return to normalcy compared to the naïve group. Test compounds were administered orally in 10% ethanol/20% Tween 80/70% polyethylene glycol-400 vehicle at a volume of 2 mL/kg. The assessment of the analgesic effects of test compounds was made 1 hour following oral administration. The assessment of the analgesic effects of test compounds can be made following a single dose or following repeated administration wherein the frequency of dosing is 1 to 2 times daily. The duration of such repeated daily dosing may last for any time greater than one day. A typical duration of repeated daily dosing is about 5 days to about 12 days.

[6] = Table 1, HEK293 cells expressing human TRPV1
[7] = read-out: % Increase in tail withdrawal latency

T1 sequence (Q8NER1 whole entry): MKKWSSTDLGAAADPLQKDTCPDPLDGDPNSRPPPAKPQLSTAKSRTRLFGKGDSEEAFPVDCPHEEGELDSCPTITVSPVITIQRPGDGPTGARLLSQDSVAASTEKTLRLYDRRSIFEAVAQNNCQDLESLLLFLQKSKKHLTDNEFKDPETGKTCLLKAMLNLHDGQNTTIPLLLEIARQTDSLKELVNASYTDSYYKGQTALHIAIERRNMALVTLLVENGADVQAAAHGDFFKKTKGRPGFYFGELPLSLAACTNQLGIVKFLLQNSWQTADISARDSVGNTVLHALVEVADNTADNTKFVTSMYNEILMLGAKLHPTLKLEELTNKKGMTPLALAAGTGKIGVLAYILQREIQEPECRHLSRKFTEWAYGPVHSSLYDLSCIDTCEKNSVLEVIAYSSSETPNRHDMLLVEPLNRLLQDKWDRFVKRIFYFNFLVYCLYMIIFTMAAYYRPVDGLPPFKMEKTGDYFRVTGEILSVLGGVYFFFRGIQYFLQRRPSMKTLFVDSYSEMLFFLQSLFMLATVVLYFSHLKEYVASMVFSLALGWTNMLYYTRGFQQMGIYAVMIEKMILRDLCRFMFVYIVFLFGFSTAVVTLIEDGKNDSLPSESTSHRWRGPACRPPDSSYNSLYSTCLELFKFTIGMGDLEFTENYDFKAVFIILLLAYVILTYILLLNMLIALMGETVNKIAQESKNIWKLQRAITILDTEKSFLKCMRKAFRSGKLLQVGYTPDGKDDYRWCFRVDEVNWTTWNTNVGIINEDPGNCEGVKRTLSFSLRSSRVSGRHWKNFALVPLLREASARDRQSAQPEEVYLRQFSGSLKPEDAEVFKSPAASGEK

Structure (SMILES)	pIC50 [1, 6]	pIC50 ([1]; Table 2)	remaining activity at 37.5 µM ([2]; Table 1) [%]	remaining activity at 37.5 µM ([2]; Table 2) [%]	change in vivo at 100 µmol/kg (Sprague-Dawley rats [3]; [7]) [%]	further results
O=C(Nc1cccc2c1C[C@@H](O)C2)N[C@@H]1CC[C@H](c2ccccc2)C1 [Example 2, 1-[(2S)-2-hydroxy-2,3-dihydro-1H-inden-4-yl]-3-[(1R,3S)-3-phenylcyclopentyl]urea]	7.54	7.54	40	40		% Increase in tail withdrawal latency (Sprague-Dawley rats [3]): −
O=C(Nc1cccc2[nH]ncc12)N[C@@H]1CC[C@H](c2ccccc2)C1 [Example 7, 1-(1H-indazol-4-yl)-3-[(1R,3S)-3-phenylcyclopentyl]urea]	8.05	8.05	32	32		% Increase in tail withdrawal latency (Sprague-Dawley rats [3]): −
Cc1cc2c(NC(=O)N[C@@H]3CC[C@@H](c4ccccc4)C3)c(F)ccc2cn1 [Example 20, 1-(6-fluoro-3-methylisoquinolin-5-yl)-3-[(1R,3R)-3-phenylcyclopentyl]urea]	8.30	8.30	32	32		% Increase in tail withdrawal latency (Sprague-Dawley rats [3]): −
Cc1cc2c(NC(=O)N[C@H]3CC[C@@H](c4ccccc4)C3)c(F)ccc2cn1 [Example 27, 1-(6-fluoro-3-methylisoquinolin-5-yl)-3-[(1S,3R)-3-phenylcyclopentyl]urea]	8.15	8.22	60	60		% Increase in tail withdrawal latency (Sprague-Dawley rats [3]): −
O=C(Nc1cccc2[nH]ncc12)N[C@@H]1C=C[C@H](c2ccccc2)C1 [Example 48, 1-(1H-indazol-4-yl)-3-[(1S,4R)-4-phenylcyclopent-2-en-1-yl]urea]	7.38	7.38	49	49		% Increase in tail withdrawal latency (Sprague-Dawley rats [3]): −
Cn1c(=O)ccc2c(NC(=O)N[C@@H]3CC[C@H](c4ccccc4)C3)cccc21 [Example 51, 1-(1-methyl-2-oxo-1,2-dihydroquinolin-5-yl)-3-((1R,3S)-3-phenylcyclopentyl)urea]	7.89	7.89	56	56		% Increase in tail withdrawal latency (Sprague-Dawley rats [3]): −; % effect (Sprague-Dawley rats [4]): 30%
O=C(Nc1cccc2[nH]ncc12)N[C@@H]1CC[C@H](c2ccccc2F)C1 [Example 61, 1-[(1R,3S)-3-(2-fluorophenyl)cyclopentyl]-3-(1H-indazol-4-yl)urea]	7.49		44			% effect (Sprague-Dawley rats [5]): 34%
O=C(Nc1cccc2[nH]ncc12)N[C@H]1CC[C@H](c2cccc(F)c2)C1 [Example 64, 1-[(1S,3S)-3-(3-fluorophenyl)cyclopentyl]-3-(1H-indazol-4-yl)urea]	7.54		25			% effect (Sprague-Dawley rats [5]): 48%
O=C(Nc1cccc2[nH]ncc12)N[C@@H]1CC[C@@H](c2ccccc2F)C1 [Example 66, 1-[(1R,3R)-3-(2-fluorophenyl)cyclopentyl]-3-(1H-indazol-4-yl)urea]	8.09	8.10	29	29	> 25	
Cn1c(=O)ccc2c(NC(=O)N[C@@H]3CC[C@@H](c4cccc(F)c4)C3)cccc21 [Example 78, 1-[(1R,3R)-3-(3-fluorophenyl)cyclopentyl]-3-(1-methyl-2-oxo-1,2-dihydroquinolin-5-yl)urea]	8.19	8.15	78	78	10 to 25	
CN1C(=O)CCc2c(NC(=O)N[C@H]3CC[C@H](c4ccccc4)C3)cccc21 [Example 96, 1-(1-methyl-2-oxo-1,2,3,4-tetrahydroquinolin-5-yl)-3-[(1S,3S)-3-phenylcyclopentyl]urea]	7.20	7.20	66	66	10 to 25	
O=C(Nc1ccc2c(c1)NC(=O)C(N1CCCOCC1)C2)N[C@@H]1CC[C@H](c2ccccc2)C1 (stereo partly drawn) [Example 143, 1-[3-(1,4-oxazepan-4-yl)-2-oxo-1,2,3,4-tetrahydroquinolin-7-yl]-3-[(1R,3S)-3-phenylcyclopentyl]urea]	6.84		24			
COCCN(C)C1Cc2ccc(NC(=O)N[C@@H]3CC[C@H](c4ccccc4)C3)cc2NC1=O (stereo partly drawn) [Example 144, 1-{3-[(2-methoxyethyl)(methyl)amino]-2-oxo-1,2,3,4-tetrahydroquinolin-7-yl}-3-[(1R,3S)-3-phenylcyclopentyl]urea]	< 4.43		62			
CN1CCOc2ccc(NC(=O)N[C@@H]3CC[C@H](c4ccccc4)C3)cc21 [Example 145, 1-(4-methyl-3,4-dihydro-2H-1,4-benzoxazin-6-yl)-3-[(1R,3S)-3-phenylcyclopentyl]urea]	6.21		91			
O=C(Nc1ccc2c(c1)NCCO2)N[C@@H]1CC[C@H](c2ccccc2)C1 [Example 146, 1-(3,4-dihydro-2H-1,4-benzoxazin-6-yl)-3-[(1R,3S)-3-phenylcyclopentyl]urea]	< 4.43		39			
CC(=O)Nc1nc2c(Oc3cc(-c4ccc(C(F)(F)F)cc4)ncn3)cccc2s1 [H, reference compound]					> 25	hTRPV1 H+ (max % remain) ([2]; Table 2): 10%
CC(C)(C)c1ccc(Nc2ncnc3cc(-c4ncccc4C(F)(F)F)ccc23)cc1 [I, reference compound]				1	> 25	
CC(C)(C)c1ccc2c(c1)CC[C@H]2NC(=O)Nc1cccc2[nH]ncc12 [J, reference compound]				1	> 25	
Cc1nc(Nc2cccc3c2C[C@H](O)CC3)oc1-c1ccc(C(F)(F)F)cc1 [K, reference compound]				3	> 25	
Cc1cccnc1N1CC=C(C(=O)Nc2ccc(S(=O)(=O)C(F)(F)F)cc2)CC1 [L, reference compound]				2	> 25	
CN1CC[C@]23c4c5ccc(O)c4O[C@H]2[C@@H](O)C=C[C@H]3[C@H]1C5 [Morphine, reference compound]						change in vivo at 6 mg/kg (Sprague-Dawley rats [3]; Rattus norvegicus, ip, read-out: % Increase in tail withdrawal latency): > 25%

— US8802711B2, “TRPV1 antagonists” (AbbVie Inc., priority 2011, dated 2014)
